Results taken from patent US11981626B1, “Compound embodiments for hydrogen sulfide production and methods of making and using the same” (University of Oregon, priority 2018, dated 2024).

Tested on: macrophage RAW 264.7 cells
Experiment: LPS-induced NO2− formation in macrophage RAW 264.7 cells (Griess)
Format: cell-based
Details: 25 μM pretreatment 6 hours, LPS 1.0 μg/mL 18 hours
Procedure: In this example, the ability of embodiments of the disclosed donor compound to provide anti-inflammatory activity was evaluated. To investigate the potential protective effects of the developed donors, pretreated macrophage RAW 264.7 cells were pretreated with γ-KetoTCM-1 (25 μM) for 6 hours, followed by an 18-hour incubation with lipopolysaccharide (LPS, 1.0 μg/mL) to induce an inflammatory response. This response is accompanied by an increase in NO production, which was monitored by measuring nitrite (NO2−) accumulation. To determine whether the observed effects were due to COS/H2S release, control experiments with γ-KetoTCM-3, γ-KetoCM-1, and GYY4137 under the identical condition also were performed. GYY4137 was used as a positive control because it has shown anti-inflammatory effects previously, and because it generates a slow, continuous release of H2S.
In this example, macrophage RAW 264.7 cells were seeded in a 24-well plate (5×10^5 cells/well) containing 0.50 mL of DMEM and incubated at 37° C. under 5% CO2 for 24 hours. The confluent cells were washed with PBS and incubated with either γ-KetoTCM-1, γ-KetoTCM-3, γ-KetoCM-1, or GYY4137 (25.0 μM) at 37° C. for 6 hours. Compounds were then removed by washing cells with PBS and these pretreated cells were incubated in FBS-free DMEM containing LPS (1.00 μg/mL) for 18 hours. NO2− levels were measured by using a Griess Reagent Kit.

With `CC(=O)CCOC(=S)Nc1ccc([N+](=O)[O-])cc1` [γ-KetoTCM-1] the “effect on LPS-induced NO2− production” value was “significantly reduced”.
